Patent US20250326814A1, “MODIFIED OXYNTOMODULIN AND METHODS OF USE THEREOF” (OPKO BIOLOGICS LTD., priority 2024, published 2025)
Starred links: 1 amine or outer side, 2 acyl side, 3 side chain; linkers in the order of their positions; H or OH if unused. Non-standard residues stand in square brackets, D forms with d. Residues, ends and D or L forms follow the SMILES beside them. Groups on a side chain read outwards from the residue. *: point of attachment. C20 diacid = O=C(O)CCCCCCCCCCCCCCCCCCC(=O)*; γGlu = O=C(O)[C@H](CCC(=O)[*:2])N[*:1]; AEEA = NCCOCCOCC(=O)O; Aib = CC(C)(N)C(=O)O

Assays:
[1] = target: T1, GLP1 (Homo sapiens, UniProt P43220); assay: GLP-1 activity in vitro of PEGylated and acylated OXM peptide analogs (Table 12); format: cell-based
Procedure: (§1) The potential benefits of novel acylated OXM products relative to the PEGylated OXM peptide were evaluated for GLP-1 and Glucagon activity in vitro, molecular weight, dosing, and efficacy in a DIO Mouse model.
(§2) The potency of the acylated OXM peptides was compared with the native OXM peptide alone and Pegylated OXM peptide to evaluate the impact of acylation on GLP-1 and Glucagon activities.

[2] = target: T2, GCGR (Homo sapiens, UniProt P47871); assay: CBA potency assay, GCGR (Tables 10 and 11); format: cell-based
Source text: (§3) The impact of the longevity-enabling molecule (PEG Vs. FA-peptide/binder complex) on the peptide potency was studied.

[3] = target: T3, glucagon-like peptide-1 (GLP1) receptor (Homo sapiens, UniProt P43220); assay: GLP-1 activity EC50 of OXM analogs and GLP-1 therapeutics (Example 4, Table 9); format: cell-based; settings: Example 4; read-out: GLP-1 activity (EC50)
T3 construct: expressed in transfected cells; host or cells: CHO-K1
Source text: The potencies of the modified OXM analogs newly disclosed in the present application, the OXM Analog alone, and the PEGylated OXM analog were examined and compared by measuring the EC50 of both receptors, glucagon-like peptide-1 (GLP1) and glucagon (GCGR).

[4] = target: T1, GLP1; assay: CBA potency assay, GLP1 (Tables 10 and 11); format: cell-based
Source text: as §3

[5] = target: T2, GCGR; assay: Glucagon activity in vitro of PEGylated and acylated OXM peptide analogs (Table 12); format: cell-based; settings: for GCGR/GLP-1R: ratio of EC50 activity
Procedure: as §1, §2

[6] = system: DIO mice; assay: Weight loss in DIO mice with OPK-88604 and OPK-88006, 30 nmoles/kg; format: in vivo; settings: vs placebo
Procedure: The animals were individually weighed and analyzed for lipid and cholesterol levels prior to treatment and following completion of the study. The levels of fasting glucose and insulin levels were analyzed, and oral glucose tolerance test was performed and compared between groups The levels of plasma triglycerides and cholesterol were evaluated at the end of study and compared to base levels prior to treatment. Levels of total cholesterol, triglycerides and glycogen were also examined at the end of study. Histology of liver was used to analyze for lipid droplets in the liver. All tests were conducted using routine methods known in the art.
DIO mice with weights of around 55 grams were divided into three groups and treated with placebo, 30 nmoles/kg of OPK-88604, or 30 nmoles/kg of OPK-88006 for 4 weeks. The animals were weighed daily for the period of treatment.

[7] = Viscosity of the formulated PEGylated OXM product; format: physicochemical

T1 sequence (P43220 24-463): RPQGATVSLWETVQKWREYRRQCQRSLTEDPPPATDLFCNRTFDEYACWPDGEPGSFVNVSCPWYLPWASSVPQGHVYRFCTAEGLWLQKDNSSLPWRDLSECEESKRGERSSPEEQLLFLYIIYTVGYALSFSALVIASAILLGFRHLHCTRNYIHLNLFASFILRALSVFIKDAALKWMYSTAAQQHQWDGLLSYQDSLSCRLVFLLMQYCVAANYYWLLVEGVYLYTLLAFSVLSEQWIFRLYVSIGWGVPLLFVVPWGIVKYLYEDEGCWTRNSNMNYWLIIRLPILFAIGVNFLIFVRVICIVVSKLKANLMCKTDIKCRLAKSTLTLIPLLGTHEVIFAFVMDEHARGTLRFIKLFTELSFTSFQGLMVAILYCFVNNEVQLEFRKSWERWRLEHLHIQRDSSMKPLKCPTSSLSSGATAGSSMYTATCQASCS
T2 sequence (P47871 26-477): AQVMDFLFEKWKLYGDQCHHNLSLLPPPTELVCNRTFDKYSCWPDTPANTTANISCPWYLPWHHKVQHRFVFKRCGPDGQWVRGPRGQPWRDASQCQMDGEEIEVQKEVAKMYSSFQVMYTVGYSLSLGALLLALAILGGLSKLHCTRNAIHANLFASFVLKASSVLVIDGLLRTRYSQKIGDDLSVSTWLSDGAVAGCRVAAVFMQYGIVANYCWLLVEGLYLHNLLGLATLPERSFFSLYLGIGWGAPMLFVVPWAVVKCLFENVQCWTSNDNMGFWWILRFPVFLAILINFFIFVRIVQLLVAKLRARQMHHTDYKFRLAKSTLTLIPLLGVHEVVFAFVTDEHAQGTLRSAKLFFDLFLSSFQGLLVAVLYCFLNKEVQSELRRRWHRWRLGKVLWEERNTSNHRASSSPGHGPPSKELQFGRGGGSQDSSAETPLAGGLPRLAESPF
T3 sequence (P43220 24-463): as the sequence (P43220 24-463) above

Q: What does the source list for CC[C@H](C)[C@H](NC(=O)[C@H](CC(N)=O)NC(=O)[C@H](CC(N)=O)NC(=O)[C@H](CCCNC(=N)N)NC(=O)[C@H](CC(N)=O)NC(=O)[C@H](CCCNC(=N)N)NC(=O)CNC(=O)C(C)(C)NC(=O)[C@H](CC(N)=O)NC(=O)[C@H](CC(C)C)NC(=O)[C@H](CC(C)C)NC(=O)[C@H](Cc1c[nH]c2ccccc12)NC(=O)[C@H](CCC(N)=O)NC(=O)[C@@H](NC(=O)[C@H](Cc1ccccc1)NC(=O)[C@H](CCC(=O)O)NC(=O)[C@H](CCC(N)=O)NC(=O)[C@H](C)NC(=O)[C@H](CCCCN)NC(=O)[C@H](CCCCN)NC(=O)[C@H](CO)NC(=O)[C@H](CC(=O)O)NC(=O)[C@H](CC(C)C)NC(=O)[C@H](Cc1ccc(O)cc1)NC(=O)[C@H](CCCCN)NC(=O)[C@H](CO)NC(=O)[C@H](Cc1ccc(O)cc1)NC(=O)[C@H](CC(=O)O)NC(=O)[C@H](CO)NC(=O)[C@@H](NC(=O)[C@H](Cc1ccccc1)NC(=O)[C@@H](NC(=O)CNC(=O)[C@H](CCC(N)=O)NC(=O)C(C)(C)NC(=O)[C@@H](N)Cc1c[nH]cn1)[C@@H](C)O)[C@@H](C)O)C(C)C)C(=O)N[C@@H](C)C(=O)N[C@@H](CS)C(=O)N[C@@H](CS)C(N)=O [OPK-88003 KPI]?
A: EC50 [1]: 0.0168 nM; % EC50 compare to KPI (GCGR) ([2]; Table 10): 100%; EC50 ([2]; Table 10): 0.6 nM; EC50 ratio (GCGR\GLP-1R) ([2]; Table 10): 4.7; % EC50 compare to KPI (GCGR) ([2]; Table 11, + HSA): 129%; EC50 ([2]; Table 11, + HSA): 1.06 nM; EC50 ratio (GCGR\GLP-1R) ([2]; Table 11, + HSA): 5.7; % EC50 compare to KPI (GCGR) ([2]; Table 11, without HSA): 100%; EC50 ([2]; Table 11, without HSA): 1.37 nM; EC50 ratio (GCGR\GLP-1R) ([2]; Table 11, without HSA): 6.8; EC50 [3]: 105 pM; % EC50 compare to KPI (GLP1) ([4]; Table 10): 100%; EC50 ([4]; Table 10): 0.127 nM; % EC50 compare to KPI (GLP1) ([4]; Table 11, + HSA): 107%; EC50 ([4]; Table 11, + HSA): 0.187 nM; % EC50 compare to KPI (GLP1) ([4]; Table 11, without HSA): 100%; EC50 ([4]; Table 11, without HSA): 0.201 nM; EC50 [5]: 0.0731 nM; GCGR/GLP-1R [5]: 4.4

Q: Which EC50 [1] does the source give for CC[C@H](C)[C@H](NC(=O)[C@H](CC(N)=O)NC(=O)[C@H](CC(N)=O)NC(=O)[C@H](CCCNC(=N)N)NC(=O)[C@H](CC(N)=O)NC(=O)[C@H](CCCNC(=N)N)NC(=O)CNC(=O)C(C)(C)NC(=O)[C@H](CC(N)=O)NC(=O)[C@H](CC(C)C)NC(=O)[C@H](CC(C)C)NC(=O)[C@H](Cc1c[nH]c2ccccc12)NC(=O)[C@H](CCC(N)=O)NC(=O)[C@@H](NC(=O)[C@H](Cc1ccccc1)NC(=O)[C@H](CCC(=O)O)NC(=O)[C@H](CCC(N)=O)NC(=O)[C@H](C)NC(=O)[C@H](CCCCN)NC(=O)[C@H](CCCCN)NC(=O)[C@H](CO)NC(=O)[C@H](CC(=O)O)NC(=O)[C@H](CC(C)C)NC(=O)[C@H](Cc1ccc(O)cc1)NC(=O)[C@H](CCCCN)NC(=O)[C@H](CO)NC(=O)[C@H](Cc1ccc(O)cc1)NC(=O)[C@H](CC(=O)O)NC(=O)[C@H](CO)NC(=O)[C@@H](NC(=O)[C@H](Cc1ccccc1)NC(=O)[C@@H](NC(=O)CNC(=O)[C@H](CCC(N)=O)NC(=O)C(C)(C)NC(=O)[C@@H](N)Cc1c[nH]cn1)[C@@H](C)O)[C@@H](C)O)C(C)C)C(=O)N[C@@H](C)C(=O)N[C@@H](CCCCNC(=O)COCCOCCNC(=O)COCCOCCNC(=O)CC[C@H](NC(=O)CCCCCCCCCCCCCCCCCCC(=O)O)C(=O)O)C(=O)NCC(N)=O [Variant 5] (H-H[Aib]QGTFTSDYSKYLDSKKAQEFVQWLLN[Aib]GRNRNNIAK([AEEA-AEEA-γGlu-C20 diacid])G-NH2) here?
A: The EC50 was 0.019 nM.

Q: What about the “weight loss over 4 weeks (FIG. 41A, 41B)” value [6] of the same molecule?
A: The value was “significant weight loss over 4 weeks”.

Q: And the EC50 [5]?
A: The EC50 was 0.31 nM.

Q: And the GCGR/GLP-1R [5]?
A: Its GCGR/GLP-1R is 16.3.

Q: For “OPK-88003 API: SEQ ID NO: 3 where Xaa38=Cys-PEG20 and Xaa39=Cys-PEG20”, which “viscosity of the formulated product” value [7] is on record?
A: The value was “high viscosity”.
